What was measured:
Assay in all cases: Cell viability, CellTiterGlo, 72 hours
Format in all cases: cell-based
[1] = system: A172; settings: Homo sapiens, A 172, A172 cells, Brain
Description: (§1) In addition to the colorectal cells, 120 cancer cell lines treated with various concentrations of lomitapide were assayed for viability. To analyze cell viability, the cells were incubated with lomitapide at 37° C. for 72 hours in a 5% or 10% CO2 atmosphere and then equilibrated at room temperature for 1 hour, followed by addition of CellTiterGlo reagent (Promega). One hour later, luminescence was measured to calculate cell viability (%). The 120 cell lines were purchased from ATCC (American Type Culture Collection, Virginia, USA).

[2] = system: A549; settings: Homo sapiens, A549 cells, Lung
Description: as §1

[3] = system: BxPC-3; settings: Homo sapiens, BxPC-3 cells, Pancreas
Description: as §1

[4] = system: Caki-2; settings: Homo sapiens, Caki-2 cells, Kidney
Description: as §1

[5] = system: EFM-192A; settings: EFM-192A cells, Breast
Description: as §1

[6] = system: EFM-19; settings: Homo sapiens, EFM-19 cells, Breast
Description: as §1

[7] = system: EFO-27; settings: Homo sapiens, EFO-27 cells, Ovary
Description: as §1

[8] = system: H2228; settings: Homo sapiens, NCI-H2228, H2228 cells, Lung
Description: as §1

[9] = system: HCC 1569; settings: Homo sapiens, HCC1569, HCC 1569 cells, Breast
Description: as §1

[10] = system: HCC38; settings: Homo sapiens, HCC38 cells, Breast
Description: as §1

[11] = system: HEC-1-A; settings: Homo sapiens, HEC-1-A cells, Endometrium
Description: as §1

[12] = system: HT-1080; settings: Homo sapiens, HT-1080 cells, Fibrosarcoma
Description: as §1

[13] = system: Hep3B2.1-7; settings: Hep3B2.1-7 cells, Liver
Description: as §1

[14] = system: Hutu 80; settings: Homo sapiens, HuTu80, Hutu 80 cells, Duodenum
Description: as §1

[15] = system: JIMT-1; settings: Homo sapiens, JIMT-1 cells, Breast
Description: as §1

[16] = system: JVM-3; settings: Homo sapiens, JVM-3 cells, Blood
Description: as §1

[17] = system: KG-1; settings: Homo sapiens, KG-1 cells, Blood
Description: as §1

[18] = system: LnCap; settings: Homo sapiens, LnCap cells, Prostate
Description: as §1

[19] = system: MKN-1; settings: Homo sapiens, MKN-1 cells, Stomach
Description: as §1

[20] = system: NCI-H1703; settings: Homo sapiens, NCI-H1703 cells, Lung
Description: as §1

[21] = system: NCI-H82; settings: Homo sapiens, NCI-H82 cells, Lung
Description: as §1

[22] = system: OCI-AML5; settings: Homo sapiens, OCI-AML-5, OCI-AML5 cells, Blood
Description: as §1

[23] = system: OPM-2; settings: Homo sapiens, OPM-2 cells, Blood
Description: as §1

[24] = system: OVCAR-3; settings: Homo sapiens, OVCAR-3 cells, Ovary
Description: as §1

[25] = system: P31/FUJ; settings: Homo sapiens, P31/FUJ cells, Blood
Description: as §1

[26] = system: PANC-1; settings: Homo sapiens, PANC-1 cells, Pancreas
Description: as §1

[27] = system: RERF-LC-Ad2; settings: RERF-LC-Ad2 cells, Lung
Description: as §1

[28] = system: RERF-LC-MS; settings: RERF-LC-MS cells, Lung
Description: as §1

[29] = system: RL95-2; settings: Homo sapiens, RL95-2 cells, Endometrium
Description: as §1

[30] = system: SJSA-1; settings: Homo sapiens, SJSA-1 cells, Bone
Description: as §1

[31] = system: SK-LU-1; settings: Homo sapiens, SK-LU-1 cells, Lung
Description: as §1

[32] = system: SK-N-FI; settings: Homo sapiens, SK-N-FI cells, Brain
Description: as §1

[33] = system: SK-N-SH; settings: Homo sapiens, SK-N-SH cells, Brain
Description: as §1

[34] = system: SK-OV3; settings: Homo sapiens, SK-OV-3, SK-OV3 cells, Ovary
Description: as §1

[35] = system: SNU-1; settings: Homo sapiens, SNU1, SNU-1 cells, Stomach
Description: as §1

[36] = system: SNU-216; settings: SNU-216 cells, Stomach
Description: as §1

[37] = system: SW480; settings: Homo sapiens, SW480 cells, Colon
Description: as §1

[38] = system: U251MG; settings: Homo sapiens, U-251, U251MG cells, Brain
Description: as §1

[39] = system: U87MG; settings: Homo sapiens, U-87 MG, U87MG cells, Brain
Description: as §1

O=C(NC1CCN(CCCCC2(C(=O)NCC(F)(F)F)c3ccccc3-c3ccccc32)CC1)c1ccccc1-c1ccc(C(F)(F)F)cc1 [lomitapide, N-(2,2,2-trifluoroethyl)-9-[4-[4-[[[4′-(trifluoromethyl)[1,1′-biphenyl]2-yl]carbonyl]amino]-1-piperidinyl]butyl]-9H-fluoren-9-carboxamide]
IC50 [1]: 1.9 µM | IC50 [2]: 3.6 µM | IC50 [3]: 5.7 µM | IC50 [4]: 2.8 µM | IC50 [5]: 4 µM | IC50 [6]: 3.6 µM | IC50 [7]: 4 µM | IC50 [8]: 5.3 µM | IC50 [9]: 2.9 µM | IC50 [10]: 6 µM | IC50 [11]: 4.9 µM | IC50 [12]: 3.9 µM | IC50 [13]: 2.7 µM | IC50 [14]: 3 µM | IC50 [15]: 3.3 µM | IC50 [16]: 4 µM | IC50 [17]: 5.7 µM | IC50 [18]: 3.5 µM | IC50 [19]: 3.7 µM | IC50 [20]: 5.7 µM | IC50 [21]: 3.2 µM | IC50 [22]: 2.7 µM | IC50 [23]: 4.4 µM | IC50 [24]: 5.3 µM | IC50 [25]: 3.1 µM | IC50 [26]: 4.5 µM | IC50 [27]: 2.6 µM | IC50 [28]: 3.2 µM | IC50 [29]: 3.2 µM | IC50 [30]: 3.1 µM | IC50 [31]: 4.6 µM | IC50 [32]: 3.4 µM | IC50 [33]: 3.2 µM | IC50 [34]: 3.3 µM | IC50 [35]: 2.8 µM | IC50 [36]: 3.1 µM | IC50 [37]: 2.5 µM | IC50 [38]: 5.4 µM | IC50 [39]: 3.1 µM

Source: patent US12582638B2, “Pharmaceutical composition for treating cancer, containing mTOR-signaling inhibitor as active ingredient” (KOREA ADVANCED INSTITUTE OF SCIENCE AND TECHNOLOGY, priority 2020, dated 2026)
